Among the data in ChEMBL document CHEMBL4725219, “Identification and in silico prediction of metabolites of tebufenozide derivatives by major human cytochrome P450 isoforms” (Bioorg Med Chem, 2020) are Retention_time and Drug metabolism values, retold here.

The nature of series [1]: Drug metabolism in recombinant Saccharomyces cerevisiae AH22 cells expressing human CYP3A4/CYP2C9 assessed as CYP-mediated hydroxylation at CH3-isopropyl group of B ring by measuring retention time of the metabolite at 100 uM incubated for 24 hrs by HPLC analysis. It is filed as ADME.
A short description of series [2]: Drug metabolism in recombinant Saccharomyces cerevisiae AH22 cells expressing human CYP3A4/CYP2C9 assessed as CYP-mediated hydroxylation at methyl group of A-ring by measuring retention time of the metabolite at 100 uM incubated for 24 hrs by HPLC analysis. It is filed as ADME.
Series [3] is described as follows: Drug metabolism in recombinant Saccharomyces cerevisiae AH22 cells expressing human CYP3A4/CYP2C9 assessed as CYP-mediated hydroxylation at CH-isopropyl group of B-ring by measuring retention time of the metabolite at 100 uM incubated for 24 hrs by HPLC analysis. It counts as ADME.
Another series concerns the target T1, Cytochrome P450 1A2 (Homo sapiens, UniProt P05177).
T1 sequence (P05177 whole entry): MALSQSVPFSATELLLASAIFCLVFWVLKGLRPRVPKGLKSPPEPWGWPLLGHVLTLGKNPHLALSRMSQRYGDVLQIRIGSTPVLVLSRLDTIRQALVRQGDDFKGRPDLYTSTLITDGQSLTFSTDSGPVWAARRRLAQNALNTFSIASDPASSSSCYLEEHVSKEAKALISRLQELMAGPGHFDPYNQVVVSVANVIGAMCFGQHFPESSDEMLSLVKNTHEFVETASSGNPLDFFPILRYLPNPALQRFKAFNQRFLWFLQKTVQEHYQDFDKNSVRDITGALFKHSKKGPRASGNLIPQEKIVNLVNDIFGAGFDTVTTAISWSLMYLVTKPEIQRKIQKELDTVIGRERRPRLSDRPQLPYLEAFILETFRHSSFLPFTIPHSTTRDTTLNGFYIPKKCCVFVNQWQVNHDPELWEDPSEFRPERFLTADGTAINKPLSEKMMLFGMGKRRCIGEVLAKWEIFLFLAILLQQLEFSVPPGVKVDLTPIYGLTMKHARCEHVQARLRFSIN
Description: Drug metabolism in microsomes containing baculovirus expressing human CYP1A2 assessed as CYP1A2-mediated hydroxylation by LC/MS/MS analysis. It is filed as ADME, Microsome.

The target of series [4] is T2, Cytochrome P450 3A4 (Homo sapiens, UniProt P08684). Description: Drug metabolism in recombinant Saccharomyces cerevisiae AH22 cells expressing human CYP3A4 assessed as CYP3A4-mediated hydroxylation at methyl group of A-ring by measuring retention time of the metabolite at 39 uM incubated for 24 hrs by HPLC analysis. It counts as ADME. The note with it: recombinant enzyme.
T2 sequence (P08684 whole entry): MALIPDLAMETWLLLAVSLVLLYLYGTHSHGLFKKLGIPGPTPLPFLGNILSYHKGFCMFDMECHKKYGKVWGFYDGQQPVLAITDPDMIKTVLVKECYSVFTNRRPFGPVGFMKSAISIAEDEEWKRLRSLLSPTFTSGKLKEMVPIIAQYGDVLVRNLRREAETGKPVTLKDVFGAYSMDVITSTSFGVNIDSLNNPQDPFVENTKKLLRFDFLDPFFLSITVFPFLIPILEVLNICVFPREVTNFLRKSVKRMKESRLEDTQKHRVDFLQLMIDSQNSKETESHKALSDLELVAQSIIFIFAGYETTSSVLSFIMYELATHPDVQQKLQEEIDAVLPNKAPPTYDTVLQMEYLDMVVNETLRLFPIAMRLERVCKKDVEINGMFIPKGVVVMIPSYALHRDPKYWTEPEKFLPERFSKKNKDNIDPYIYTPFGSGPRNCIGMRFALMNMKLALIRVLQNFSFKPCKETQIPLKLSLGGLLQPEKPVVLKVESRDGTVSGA

Series [5] has as its target T2, Cytochrome P450 3A4. Nature of the series: Drug metabolism in recombinant Saccharomyces cerevisiae AH22 cells expressing human CYP3A4 assessed as CYP3A4-mediated hydroxylation at t-butyl group by measuring retention time of the metabolite at 39 uM incubated for 24 hrs by HPLC analysis. It counts as ADME. To be noted: recombinant enzyme.
Series [6] deals with T2, Cytochrome P450 3A4. Nature of the series: Drug metabolism in recombinant Saccharomyces cerevisiae AH22 cells expressing human CYP3A4 assessed as CYP3A4-mediated hydroxylation at methyl group of B-ring by measuring retention time of the metabolite at 39 uM incubated for 24 hrs by HPLC analysis. It counts as ADME. To be noted: recombinant enzyme.
The target in another series is Cytochrome P450 2C9 (Homo sapiens, UniProt P11712). Nature of the series: Drug metabolism in microsomes containing baculovirus expressing human CYP2C9 assessed as CYP2C9-mediated hydroxylation at methyl group of A-ring by LC/MS/MS analysis relative to control. It is filed as ADME, Microsome.
Cytochrome P450 2C9, sequence (P11712 whole entry): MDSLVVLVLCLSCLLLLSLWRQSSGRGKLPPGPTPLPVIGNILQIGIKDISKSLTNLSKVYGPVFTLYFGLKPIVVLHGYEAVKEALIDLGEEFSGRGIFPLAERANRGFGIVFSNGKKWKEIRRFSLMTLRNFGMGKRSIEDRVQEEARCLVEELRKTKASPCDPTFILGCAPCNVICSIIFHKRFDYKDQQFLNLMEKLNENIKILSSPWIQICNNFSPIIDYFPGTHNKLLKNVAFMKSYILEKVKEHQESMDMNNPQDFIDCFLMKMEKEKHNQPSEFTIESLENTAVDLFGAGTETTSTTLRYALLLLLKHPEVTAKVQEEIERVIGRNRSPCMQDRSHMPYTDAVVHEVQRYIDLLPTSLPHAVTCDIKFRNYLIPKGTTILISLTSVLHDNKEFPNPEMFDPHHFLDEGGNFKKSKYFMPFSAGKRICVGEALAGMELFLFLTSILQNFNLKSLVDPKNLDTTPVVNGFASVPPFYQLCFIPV
A further series addresses Cytochrome P450 2D6 (Homo sapiens, UniProt P10635). Nature of the series: Drug metabolism in microsomes containing baculovirus expressing human CYP2D6 assessed as CYP2D6-mediated hydroxylation at methyl group of A-ring by LC/MS/MS analysis relative to control. It counts as ADME, Microsome.

Cytochrome P450 2D6, sequence (P10635 whole entry): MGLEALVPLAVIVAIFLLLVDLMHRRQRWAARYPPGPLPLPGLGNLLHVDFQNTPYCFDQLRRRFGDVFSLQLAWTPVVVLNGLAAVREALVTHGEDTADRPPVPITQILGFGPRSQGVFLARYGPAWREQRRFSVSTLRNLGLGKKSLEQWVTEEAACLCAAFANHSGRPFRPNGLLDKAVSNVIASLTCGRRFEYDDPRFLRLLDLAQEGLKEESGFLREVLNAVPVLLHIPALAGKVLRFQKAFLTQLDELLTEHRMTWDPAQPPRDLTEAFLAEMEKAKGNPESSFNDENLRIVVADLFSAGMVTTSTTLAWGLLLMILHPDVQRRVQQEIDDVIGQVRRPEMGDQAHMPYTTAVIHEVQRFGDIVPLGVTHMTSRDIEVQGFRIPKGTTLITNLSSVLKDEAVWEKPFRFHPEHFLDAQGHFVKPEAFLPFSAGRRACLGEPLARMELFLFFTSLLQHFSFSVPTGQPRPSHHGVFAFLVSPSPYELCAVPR

For the molecule `Cc1cc(C)cc(C(=O)N(NC(=O)c2ccc(C(C)C)cc2)C(C)(C)C)c1`, the values for the Retention_time in series [1], in series [2] and in series [3] were 12 min, 17.7 min and 13.9 min, respectively. On Cytochrome P450 1A2, the Drug metabolism result was “Metabolite_Notdetected”.
Take `Cc1cc(C)cc(C(=O)N(NC(=O)c2ccccc2C)C(C)(C)C)c1`: the Drug metabolism entry at Cytochrome P450 1A2 is “Metabolite_Notdetected”.
With `Cc1cccc(C(=O)NN(C(=O)c2cc(C)cc(C)c2)C(C)(C)C)c1`, the values for the Retention_time on Cytochrome P450 3A4 [4], on Cytochrome P450 3A4 [5] and on Cytochrome P450 3A4 [6] were 17.4 min, 16.1 min and 16.1 min, respectively. The Drug metabolism result on Cytochrome P450 2C9 was “Metabolite_Detected”; at Cytochrome P450 2D6, “Metabolite_Detected”; on Cytochrome P450 1A2 it was “Metabolite_Notdetected”.
